In PubChem BioAssay AID1963827 (Molecular Pharmacology Branch, DTP, NCI, 2024):
pIC50: −log10 of the molar value.

Test system: 994946-033-R-J1-PDC complex spheroid viability
Experiment: Anticancer human tumor 994946-033-R-J1-PDC patient-derived melanoma cell line growth inhibition [POLQ]
Conditions: for pIC50: curve of first compound; for viability, T/C: stronger effect = lower value
Experimental: Multicellular complex tumor spheroid response to Polymerase (POL) inhibitors (novobiocin, ART-558, RP6685) in combination with a variety of drugs and investigational agents in selected tumor cell lines
The POL inhibitors (novobiocin, ART-558, and RP6685) were evaluated both individually and in combination with standard of care and investigational anticancer small molecules within a complex spheroid model of solid tumors. . Complex spheroids include a stromal component modeled by human endothelial cells (HUVEC) and fibroblasts modeled by human mesenchymal stem cells (MSCs). The concentration ranges selected for each drug and investigational agent were based upon clinically achievable concentrations if the clinical Cmax of the agent was known.
Compounds. The drugs and investigational agents: novobiocin (NSC847541), ART-558 (NSC835418), RP-6685 (NSC848927), peposertib (NSC802822), ceralasertib (NSC780249), elimusertib (NSC800525), camonsertib (NSC841442), AZD-1390 (NSC803789), olaparib (NSC753686), talazoparib (NSC767125), rucaparib (NSC756644), sotorasib (NSC818433), MRTX-1133 (NSC836407), SN-38 (NSC673596), topotecan (NSC609699), epotoside (NSC141540), doxorubicin (NSC123127), gemcitabine (NSC613327), 5-fluorouracil (NSC19893), paclitaxel (NSC125973), vemurafenib (NSC761431), MSA-2 (NSC828583), SN-011 (NSC837082), adavosertib (NSC754352), prexasertib (NSC758257), carboplatin (NSC241240) and oxaliplatin (NSC266046), were obtained from the National Cancer Institute (NCI) Developmental Therapeutics Program Chemical Repository (21). The FDA-approved anticancer drug set is available from the Developmental Therapeutics Program at https://dtp.cancer.gov/organization/dscb/obtaining/. […] The stock solutions were prepared in dimethyl sulfoxide (DMSO, Sigma-Aldrich, St. Louis, MO, cat. D2650), except for the platinum compounds which were prepared in saline (Quality Biological, Gaithersburg, MD, cat. 114-055-101), at 800-fold the tested concentration and stored at -70 degrees C prior to their use. All drugs and investigational agents were tested over a range starting from a high concentration at or near the clinical Cmax and decreasing in half-log increments. If the clinical Cmax for an agent had not been determined, the highest concentration tested was 10 microM, except for SN-38, which was tested at a high concentration of 1 microM.
Cell Culture. All cells were maintained in an incubator at 37 degrees C and 5% CO2 with 95% humidity. The PDC lines were cultured according to standard operating procedures established by the NCI PDMR (https://pdmr.cancer.gov). Table 3 of the manuscript, lists the cell lines along with the number of the three cell types plated to form the mct-spheroids and media for tumor cell growth. After thawing, all PDC lines, except 997537-175-T-J1-PDC and 415267-285-R-J2-PDC, were cultured in Matrigel-coated flasks prepared with a working solution of 1X Ham's F-12 nutrient mix, without supplementation (Thermo Fisher Scientific, cat. 11765054), 100 U/mL penicillin-streptomycin (Thermo Fisher Scientific, cat. 15140122), and 2.5% Matrigel (Corning Inc., Corning, NY, cat. 354248) for the first three passages. The two PDC lines 997537-175-T-J1-PDC and 415267-285-R-J2-PDC were cultured on uncoated flasks. The 857933-349-R-J2-PDC line was cultured in 6C/Colon 1B media containing advanced DMEM/F-12 (Thermo Fisher Scientific, cat. 12634028), 10 mM HEPES (Thermo Fisher Scientific, cat. 15630080), 1X GlutaMAX supplement (Thermo Fisher Scientific, cat. 35050061), 0.1 mg/mL primocin (InvivoGen, San Diego, CA, cat. ant-pm-2), 10% defined fetal bovine serum, heat inactivated (HyClone Laboratories Inc., Logan, UT, cat. SH30070.03HI), 50% L-WRN conditioned media (ATCC, cat. CRL-3276), 1.25 mM N-Acetyl-L-cysteine (Sigma-Aldrich, cat. A9165), 10 mM nicotinamide (Sigma-Aldrich, cat. N0636), 1X B-27 supplement (Thermo Fisher Scientific, cat. 17504044), 1X N-2 supplement (Thermo Fisher Scientific, cat. […]
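Note: spheroids exposed to drugs for 7 days.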
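Throughout, for viability, T/C: 100% = DMSO vehicle treated spheroids.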

SMILES: CC(C)n1c(=O)n(C)c2cnc3cc(F)c(-c4ccc(OCCCN5CCCCC5)nc4)cc3c21 + Cc1cccc(N(C)C(=O)C2C(O)CCN2c2nc(C)cc(C(F)(F)F)c2C#N)c1
- pIC50 (second compound 0.0316 µM): 5.20
- pIC50 (second compound 0.1 µM): 5.33
- pIC50 (second compound 0.316 µM): 5.26
- pIC50 (second compound 1 µM): 5.25
- pIC50 (second compound 3.16 µM): 5.18
- pIC50 (second compound 10 µM): 5.38
- viability, T/C (second compound 0.0316 µM, first compound 0.0316 µM): 97.3%
- viability, T/C (second compound 0.0316 µM, first compound 0.1 µM): 97.6%
- viability, T/C (second compound 0.0316 µM, first compound 0.316 µM): 87.2%
- viability, T/C (second compound 0.0316 µM, first compound 1 µM): 74.2%
- viability, T/C (second compound 0.0316 µM, first compound 3.16 µM): 71.4%
- viability, T/C (second compound 0.0316 µM, first compound 10 µM): 37.8%
- viability, T/C (second compound 0.1 µM, first compound 0.0316 µM): 92.1%
- viability, T/C (second compound 0.1 µM, first compound 0.1 µM): 67.6%
- viability, T/C (second compound 0.1 µM, first compound 0.316 µM): 75.8%
- viability, T/C (second compound 0.1 µM, first compound 1 µM): 62.5%
- viability, T/C (second compound 0.1 µM, first compound 3.16 µM): 69.3%
- viability, T/C (second compound 0.1 µM, first compound 10 µM): 23.8%
- viability, T/C (second compound 0.316 µM, first compound 0.0316 µM): 82.5%
- viability, T/C (second compound 0.316 µM, first compound 0.1 µM): 117%
- viability, T/C (second compound 0.316 µM, first compound 0.316 µM): 87.9%
- viability, T/C (second compound 0.316 µM, first compound 1 µM): 93.6%
- viability, T/C (second compound 0.316 µM, first compound 3.16 µM): 84.5%
- viability, T/C (second compound 0.316 µM, first compound 10 µM): 11.8%
- viability, T/C (second compound 1 µM, first compound 0.0316 µM): 97%
- viability, T/C (second compound 1 µM, first compound 0.1 µM): 81%
- viability, T/C (second compound 1 µM, first compound 0.316 µM): 94%
- viability, T/C (second compound 1 µM, first compound 1 µM): 93.6%
- viability, T/C (second compound 1 µM, first compound 3.16 µM): 83.5%
- viability, T/C (second compound 1 µM, first compound 10 µM): 16.3%
- viability, T/C (second compound 3.16 µM, first compound 0.0316 µM): 94.8%
- viability, T/C (second compound 3.16 µM, first compound 0.1 µM): 62.2%
- viability, T/C (second compound 3.16 µM, first compound 0.316 µM): 94.4%
- viability, T/C (second compound 3.16 µM, first compound 1 µM): 90.7%
- viability, T/C (second compound 3.16 µM, first compound 3.16 µM): 92%
- viability, T/C (second compound 3.16 µM, first compound 10 µM): 29.4%
- viability, T/C (second compound 10 µM, first compound 0.0316 µM): 109%
- viability, T/C (second compound 10 µM, first compound 0.1 µM): 92.6%
- viability, T/C (second compound 10 µM, first compound 0.316 µM): 93.2%
- viability, T/C (second compound 10 µM, first compound 1 µM): 74.7%
- viability, T/C (second compound 10 µM, first compound 3.16 µM): 63.2%
- viability, T/C (second compound 10 µM, first compound 10 µM): 22.3%
